Holding throughout (type): functional
One assay has as its system Pseudomonas aeruginosa. The experiment in a line: Antimicrobial activity against Pseudomonas aeruginosa ATCC 27853 assessed as growth inhibition measured after 8 hrs incubation by standard broth dilution assay. On the technique in general: In broth dilution the organism is exposed to a series of concentrations in liquid medium.
The next assay deals with Streptococcus pneumoniae. As to the kind of experiment: Antimicrobial activity against Streptococcus pneumoniae ATCC 49619 assessed as growth inhibition measured after 8 hrs incubation by standard broth dilution assay.
The next assay has as its system Staphylococcus aureus. The experiment in a line: Antimicrobial activity against methicillin-resistant Staphylococcus aureus ATCC 43300 assessed as growth inhibition measured after 8 hrs incubation by standard broth dilution assay.
The subject of the next assay is Klebsiella pneumoniae. As to the kind of experiment: Antimicrobial activity against Klebsiella pneumoniae ATCC 13883 assessed as growth inhibition measured after 8 hrs incubation by standard broth dilution assay.

By MIC is commonly meant the least concentration at which growth counts as inhibited.

Molecules are shown by their SMILES. Converted amounts (≈) assume the structure as drawn. Positions of bridges follow the written chain, without caps; N, C: chain ends. Non-standard residues stand in square brackets, D forms with d. Residues, ends and D or L forms follow the SMILES beside them. R8 = C=CCCCCCC[C@@](C)(N)C(=O)O; S5 = C=CCCC[C@](C)(N)C(=O)O

Take `CC(=O)N[C@@H](CC(C)C)C(=O)N[C@@H](CCCCN)C(=O)N[C@@H](CCCNC(=N)N)C(=O)N[C@H](C(=O)N[C@@H](Cc1c[nH]c2ccccc12)C(=O)N[C@@H](CCCCN)C(=O)N[C@@H](CCCNC(=N)N)C(=O)N[C@H](C(=O)N[C@@H](Cc1ccccc1)C(=O)N[C@@H](CCCCN)C(=O)N[C@@H](CC(C)C)C(=O)N[C@@H](CC(C)C)C(=O)N[C@@H](CCCCN)C(=O)N[C@@H](CCCNC(=N)N)C(=O)N[C@@H](Cc1ccc(O)cc1)C(=O)N[C@@H](Cc1c[nH]c2ccccc12)C(=O)N[C@@H](CCCNC(=N)N)C(=O)N[C@@H](CCC(N)=O)C(=O)N[C@@]1(C)CCC/C=C\CCC[C@@](C)(C(=O)N[C@@H](CCCNC(=N)N)C(N)=O)NC(=O)[C@@H]2CCCN2C(=O)[C@H](CCCCN)NC(=O)[C@H](CCCCN)NC1=O)C(C)C)C(C)C` (Ac-LKRVWKRVFKLLKRYWRQ[S5]KKP[S5]R-NH2; staple (Z) 19-23): the MIC in the assay on Pseudomonas aeruginosa was 5 µg/mL (≈ 1.51 µM); in the assay on Streptococcus pneumoniae it was 9.6 µg/mL (≈ 2.9 µM); in the assay with Staphylococcus aureus it was 19.1 µg/mL (≈ 5.78 µM); with Klebsiella pneumoniae, 38 µg/mL (≈ 11.5 µM).
For `CC(=O)N[C@@H](CC(C)C)C(=O)N[C@@H](CCCCN)C(=O)N[C@@H](CCCNC(=N)N)C(=O)N[C@H](C(=O)N[C@@H](Cc1c[nH]c2ccccc12)C(=O)N[C@@H](CCCCN)C(=O)N[C@@H](CCCNC(=N)N)C(=O)N[C@H](C(=O)N[C@@H](Cc1ccccc1)C(=O)N[C@@H](CCCCN)C(=O)N[C@@H](CC(C)C)C(=O)N[C@@H](CC(C)C)C(=O)N[C@@H](CCCCN)C(=O)N[C@@H](CCCNC(=N)N)C(=O)N[C@@H](Cc1ccc(O)cc1)C(=O)N[C@@H](Cc1c[nH]c2ccccc12)C(=O)N[C@@H](CCCNC(=N)N)C(=O)N[C@@]1(C)CCC/C=C\CCC[C@@](C)(C(=O)N[C@H](C(=O)N[C@@H](CCCNC(=N)N)C(N)=O)C(C)C)NC(=O)[C@H](CCCCN)NC(=O)[C@H](CCCCN)NC(=O)[C@H](CC(C)C)NC1=O)C(C)C)C(C)C` (Ac-LKRVWKRVFKLLKRYWR[S5]LKK[S5]VR-NH2; staple (Z) 18-22), the MIC is 9.8 µg/mL (≈ 2.98 µM) with Pseudomonas aeruginosa, 37.7 µg/mL (≈ 11.5 µM) in the assay on Streptococcus pneumoniae, 4.9 µg/mL (≈ 1.49 µM) in the assay on Staphylococcus aureus and 38 µg/mL (≈ 11.5 µM) in the assay with Klebsiella pneumoniae.
Regarding `CC(=O)N[C@@H](CC(C)C)C(=O)N[C@@H](CCCCN)C(=O)N[C@@H](CCCNC(=N)N)C(=O)N[C@H](C(=O)N[C@@H](Cc1c[nH]c2ccccc12)C(=O)N[C@@H](CCCCN)C(=O)N[C@@H](CCCNC(=N)N)C(=O)N[C@H](C(=O)N[C@@H](Cc1ccccc1)C(=O)N[C@@H](CCCCN)C(=O)N[C@@H](CC(C)C)C(=O)N[C@@H](CC(C)C)C(=O)N[C@@H](CCCCN)C(=O)N[C@@H](CCCNC(=N)N)C(=O)N[C@@H](Cc1ccc(O)cc1)C(=O)N[C@]1(C)CCCCCC/C=C\CCC[C@@](C)(C(=O)N[C@@H](CCCNC(=N)N)C(N)=O)NC(=O)[C@@H]2CCCN2C(=O)[C@H](CCCCN)NC(=O)[C@H](CCCCN)NC(=O)[C@H](CC(C)C)NC(=O)[C@H](CCC(N)=O)NC(=O)[C@H](CCCNC(=N)N)NC1=O)C(C)C)C(C)C` (Ac-LKRVWKRVFKLLKRY[R8]RQLKKP[S5]R-NH2; staple (Z) 16-23), the minimum inhibitory concentration (MIC) in the assay on Pseudomonas aeruginosa worked out at 2.6 µg/mL (≈ 0.794 µM); with Streptococcus pneumoniae it was 19 µg/mL (≈ 5.8 µM); in the assay with Staphylococcus aureus it was 9.7 µg/mL (≈ 2.96 µM); in the assay on Klebsiella pneumoniae it was 2.5 µg/mL (≈ 0.764 µM).
The like results for `CC(=O)N[C@@H](CC(C)C)C(=O)N[C@@H](CCCCN)C(=O)N[C@@H](CCCNC(=N)N)C(=O)N[C@H](C(=O)N[C@@H](Cc1c[nH]c2ccccc12)C(=O)N[C@@H](CCCCN)C(=O)N[C@@H](CCCNC(=N)N)C(=O)N[C@H](C(=O)N[C@@H](Cc1ccccc1)C(=O)N[C@@H](CCCCN)C(=O)N[C@@H](CC(C)C)C(=O)N[C@@H](CC(C)C)C(=O)N[C@@H](CCCCN)C(=O)N[C@@H](CCCNC(=N)N)C(=O)N[C@@H](Cc1ccc(O)cc1)C(=O)N[C@@]1(C)CCC/C=C\CCC[C@@](C)(C(=O)N[C@@H](CCCCN)C(=O)N2CCC[C@H]2C(=O)N[C@H](C(=O)N[C@@H](CCCNC(=N)N)C(N)=O)C(C)C)NC(=O)[C@H](CC(C)C)NC(=O)[C@H](CCC(N)=O)NC(=O)[C@H](CCCNC(=N)N)NC1=O)C(C)C)C(C)C` (Ac-LKRVWKRVFKLLKRY[S5]RQL[S5]KPVR-NH2; staple (Z) 16-20) were, in that order, 5 µg/mL (≈ 1.56 µM), 19 µg/mL (≈ 5.93 µM), 2.5 µg/mL (≈ 0.78 µM) and 38 µg/mL (≈ 11.9 µM).

Values taken from ChEMBL document CHEMBL6153110, “Peptide Double-Stapling and Arginine N-Glycosylation Triggered the Development of Therapeutic Antimicrobial Peptides Capable of Killing Drug-Resistant Bacteria in Mice” (J Med Chem, 2025).
